# Test results taken from article PMC9954146, “Anti-Leukaemic Activity of Rilpivirine Is Mediated by Aurora A Kinase Inhibition” (Cancers, 2023).
# Key:
# Experiment in all cases: Kinase panel
# Format in all cases: biochemical
# Details in all cases: read-out: % Residual Activity
# [1] = molecular target: T1, PDGFRα(V561D)(h) (Homo sapiens, UniProt P16234, V561D)
# T1 construct: purchased Eurofins (KinaseProfiler)
# How it was run: (§1)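 Rilpivirine was screened across the kinome for selectivity; inhibition was then quantified radiometrically at Km ATP, and Cheng–Prusoff was applied to derive Ki from IC50.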
# [2] = molecular target: T2, Met(Y1248D)(h) (Homo sapiens, UniProt P08581, Y1230D)
# T2 construct: purchased Eurofins (KinaseProfiler)
# How it was run: as §1
# [3] = molecular target: T3, Plk3(h) (Homo sapiens, UniProt Q9H4B4)
# T3 construct: purchased Eurofins (KinaseProfiler)
# T3 sequence (Q9H4B4 whole entry): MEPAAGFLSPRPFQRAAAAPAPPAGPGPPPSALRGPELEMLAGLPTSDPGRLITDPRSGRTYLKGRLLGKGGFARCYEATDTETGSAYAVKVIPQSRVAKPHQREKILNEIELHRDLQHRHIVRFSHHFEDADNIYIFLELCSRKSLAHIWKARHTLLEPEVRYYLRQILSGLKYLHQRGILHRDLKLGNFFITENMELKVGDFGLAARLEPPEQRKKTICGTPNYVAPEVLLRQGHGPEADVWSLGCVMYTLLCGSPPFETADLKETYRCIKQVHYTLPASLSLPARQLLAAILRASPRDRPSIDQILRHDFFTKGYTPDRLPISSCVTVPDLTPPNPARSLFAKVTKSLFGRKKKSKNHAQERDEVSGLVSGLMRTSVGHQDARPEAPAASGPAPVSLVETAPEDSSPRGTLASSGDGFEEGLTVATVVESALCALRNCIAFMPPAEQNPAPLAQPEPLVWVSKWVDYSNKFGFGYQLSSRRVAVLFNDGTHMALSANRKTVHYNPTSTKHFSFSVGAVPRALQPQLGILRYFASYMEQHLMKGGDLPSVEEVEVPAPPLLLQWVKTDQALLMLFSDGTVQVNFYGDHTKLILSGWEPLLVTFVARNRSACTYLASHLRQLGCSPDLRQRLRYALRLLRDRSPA
# How it was run: as §1
# [4] = molecular target: T4, cKit(D816V)(h) (Homo sapiens, UniProt P10721, D816V)
# T4 construct: purchased Eurofins (KinaseProfiler)
# How it was run: as §1
# [5] = molecular target: T5, VRK1(h) (Homo sapiens, UniProt Q99986)
# T5 construct: purchased Eurofins (KinaseProfiler)
# How it was run: as §1
# [6] = molecular target: T6, PI3 Kinase (p110a(E545K)/p85a)(m) (Mus musculus, UniProt P42337, E545K)
# T6 construct: purchased Eurofins (KinaseProfiler)
# How it was run: as §1
# [7] = molecular target: T7, CK2(h) (Homo sapiens, UniProt P68400)
# T7 construct: purchased Eurofins (KinaseProfiler)
# How it was run: as §1
# [8] = molecular target: T8, LOK(h) (Homo sapiens, UniProt O94804)
# T8 construct: purchased Eurofins (KinaseProfiler)
# How it was run: as §1
# [9] = molecular target: T9, Src(T341M)(h) (Homo sapiens, UniProt P12931, T341M)
# T9 construct: purchased Eurofins (KinaseProfiler)
# T9 sequence (P12931 whole entry T341M): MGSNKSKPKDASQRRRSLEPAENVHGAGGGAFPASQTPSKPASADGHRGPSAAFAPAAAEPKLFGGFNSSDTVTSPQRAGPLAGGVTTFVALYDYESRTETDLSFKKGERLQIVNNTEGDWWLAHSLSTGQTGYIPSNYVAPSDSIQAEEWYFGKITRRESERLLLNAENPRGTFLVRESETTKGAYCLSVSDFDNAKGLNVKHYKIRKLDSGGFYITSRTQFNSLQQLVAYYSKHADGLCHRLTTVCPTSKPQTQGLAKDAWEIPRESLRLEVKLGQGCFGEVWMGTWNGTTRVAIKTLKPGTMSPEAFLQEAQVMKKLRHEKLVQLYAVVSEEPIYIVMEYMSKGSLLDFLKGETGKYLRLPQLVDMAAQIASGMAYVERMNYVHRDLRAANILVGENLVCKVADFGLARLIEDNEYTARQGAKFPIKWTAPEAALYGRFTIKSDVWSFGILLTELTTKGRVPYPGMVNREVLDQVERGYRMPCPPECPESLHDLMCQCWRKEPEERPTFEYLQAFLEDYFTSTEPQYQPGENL
# How it was run: as §1
# [10] = molecular target: T10, A-Raf(h) (Homo sapiens, UniProt P10398)
# T10 construct: purchased Eurofins (KinaseProfiler)
# How it was run: as §1
# [11] = molecular target: T11, PKG1α(h) (Homo sapiens, UniProt Q13976)
# T11 construct: purchased Eurofins (KinaseProfiler)
# T11 sequence (Q13976 whole entry): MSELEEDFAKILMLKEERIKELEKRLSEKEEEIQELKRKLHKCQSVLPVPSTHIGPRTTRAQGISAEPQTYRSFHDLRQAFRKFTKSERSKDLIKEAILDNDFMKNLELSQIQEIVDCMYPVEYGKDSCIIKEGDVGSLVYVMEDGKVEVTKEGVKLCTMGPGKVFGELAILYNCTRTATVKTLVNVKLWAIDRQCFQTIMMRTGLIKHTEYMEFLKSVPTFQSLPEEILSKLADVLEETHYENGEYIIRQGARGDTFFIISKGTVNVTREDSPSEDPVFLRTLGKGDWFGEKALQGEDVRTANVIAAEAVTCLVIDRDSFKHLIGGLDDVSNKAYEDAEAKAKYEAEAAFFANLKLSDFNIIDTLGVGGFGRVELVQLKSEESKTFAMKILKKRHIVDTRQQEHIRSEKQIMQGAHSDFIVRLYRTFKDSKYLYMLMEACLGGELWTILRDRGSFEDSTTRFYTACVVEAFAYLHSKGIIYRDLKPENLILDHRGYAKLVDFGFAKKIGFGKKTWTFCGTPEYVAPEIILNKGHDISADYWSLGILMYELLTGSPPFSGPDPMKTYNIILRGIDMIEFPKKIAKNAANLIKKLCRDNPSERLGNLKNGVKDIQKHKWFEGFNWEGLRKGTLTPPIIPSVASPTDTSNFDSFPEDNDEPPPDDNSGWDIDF
# How it was run: as §1
# [12] = molecular target: T12, SAPK2a(h) (Homo sapiens, UniProt Q16539)
# T12 construct: purchased Eurofins (KinaseProfiler)
# How it was run: as §1
# [13] = molecular target: T13, STK32B(h) (Homo sapiens, UniProt Q9NY57)
# T13 construct: purchased Eurofins (KinaseProfiler)
# T13 sequence (Q9NY57 whole entry): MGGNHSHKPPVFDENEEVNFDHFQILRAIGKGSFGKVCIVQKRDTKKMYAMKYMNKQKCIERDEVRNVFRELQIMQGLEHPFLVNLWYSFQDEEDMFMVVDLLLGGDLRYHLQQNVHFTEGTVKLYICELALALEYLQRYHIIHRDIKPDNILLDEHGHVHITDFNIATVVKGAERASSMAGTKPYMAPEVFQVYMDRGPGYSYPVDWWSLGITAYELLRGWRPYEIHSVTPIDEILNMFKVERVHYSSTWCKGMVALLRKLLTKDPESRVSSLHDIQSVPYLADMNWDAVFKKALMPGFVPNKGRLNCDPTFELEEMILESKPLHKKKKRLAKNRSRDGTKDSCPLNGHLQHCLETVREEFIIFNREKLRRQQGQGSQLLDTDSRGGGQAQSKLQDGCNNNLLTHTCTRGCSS
# How it was run: as §1
# [14] = molecular target: T14, CK1γ3(h) (Homo sapiens, UniProt Q9Y6M4)
# T14 construct: purchased Eurofins (KinaseProfiler)
# How it was run: as §1
# [15] = molecular target: T15, PKBγ(h) (Homo sapiens, UniProt Q9Y243)
# T15 construct: purchased Eurofins (KinaseProfiler)
# How it was run: as §1
# [16] = molecular target: T16, IRR(h) (Homo sapiens, UniProt P14616)
# T16 construct: purchased Eurofins (KinaseProfiler)
# How it was run: as §1
# [17] = molecular target: T17, IKKβ(h) (Homo sapiens, UniProt O14920)
# T17 construct: purchased Eurofins (KinaseProfiler)
# How it was run: as §1
# [18] = molecular target: T18, PKCμ(h) (Homo sapiens, UniProt Q15139)
# T18 construct: purchased Eurofins (KinaseProfiler)
# How it was run: as §1
# [19] = molecular target: T19, EphA7(h) (Homo sapiens, UniProt Q15375)
# T19 construct: purchased Eurofins (KinaseProfiler)
# How it was run: as §1
# [20] = molecular target: T20, CaMKIIγ(h) (Homo sapiens, UniProt Q13555)
# T20 construct: purchased Eurofins (KinaseProfiler)
# How it was run: as §1
# [21] = molecular target: T21, Wee1B(h) (Homo sapiens, UniProt P0C1S8)
# T21 construct: purchased Eurofins (KinaseProfiler)
# How it was run: as §1
# [22] = molecular target: T22, HIPK4(h) (Homo sapiens, UniProt Q8NE63)
# T22 construct: purchased Eurofins (KinaseProfiler)
# How it was run: as §1
# [23] = molecular target: T23, PRK2(h) (Homo sapiens, UniProt Q16513)
# T23 construct: purchased Eurofins (KinaseProfiler)
# How it was run: as §1
# [24] = molecular target: T24, VRK2(h) (Homo sapiens, UniProt Q86Y07)
# T24 construct: purchased Eurofins (KinaseProfiler)
# How it was run: as §1
# [25] = molecular target: T25, DNA-PK(h) (Homo sapiens, UniProt P78527)
# T25 construct: purchased Eurofins (KinaseProfiler)
# How it was run: as §1
# [26] = molecular target: T26, SAPK4(h) (Homo sapiens, UniProt O15264)
# T26 construct: purchased Eurofins (KinaseProfiler)
# How it was run: as §1
# [27] = molecular target: T27, Fms(Y969C)(h) (Homo sapiens, UniProt P07333, Y969C)
# T27 construct: purchased Eurofins (KinaseProfiler)
# How it was run: as §1
# [28] = molecular target: T28, TGFBR2(h) (Homo sapiens, UniProt P37173)
# T28 construct: purchased Eurofins (KinaseProfiler)
# How it was run: as §1
# [29] = molecular target: T29, SGK3(h) (Homo sapiens, UniProt Q96BR1)
# T29 construct: purchased Eurofins (KinaseProfiler)
# T29 sequence (Q96BR1 whole entry): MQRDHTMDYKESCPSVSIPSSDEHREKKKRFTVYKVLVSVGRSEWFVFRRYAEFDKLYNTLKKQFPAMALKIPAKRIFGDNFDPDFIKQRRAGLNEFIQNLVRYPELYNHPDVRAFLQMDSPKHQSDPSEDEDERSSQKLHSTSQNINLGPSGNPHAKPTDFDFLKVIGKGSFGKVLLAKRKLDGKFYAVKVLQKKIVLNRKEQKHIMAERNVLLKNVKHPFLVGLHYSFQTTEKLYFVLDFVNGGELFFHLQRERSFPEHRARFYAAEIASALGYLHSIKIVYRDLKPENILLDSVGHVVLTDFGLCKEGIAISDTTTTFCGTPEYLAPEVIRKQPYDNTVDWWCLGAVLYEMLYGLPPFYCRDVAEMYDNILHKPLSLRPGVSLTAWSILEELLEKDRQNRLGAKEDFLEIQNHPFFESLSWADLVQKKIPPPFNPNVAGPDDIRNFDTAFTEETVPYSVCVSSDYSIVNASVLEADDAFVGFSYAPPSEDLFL
# How it was run: as §1
# [30] = molecular target: T30, DCAMKL1(h) (Homo sapiens, UniProt O15075)
# T30 construct: purchased Eurofins (KinaseProfiler)
# How it was run: as §1
# [31] = molecular target: T31, EphA4(h) (Homo sapiens, UniProt P54764)
# T31 construct: purchased Eurofins (KinaseProfiler)
# How it was run: as §1
# [32] = molecular target: T32, GRK5(h) (Homo sapiens, UniProt P34947)
# T32 construct: purchased Eurofins (KinaseProfiler)
# How it was run: as §1
# [33] = molecular target: T33, IKKα(h) (Homo sapiens, UniProt O15111)
# T33 construct: purchased Eurofins (KinaseProfiler)
# How it was run: as §1
# [34] = molecular target: T34, eEF-2K(h) (Homo sapiens, UniProt O00418)
# T34 construct: purchased Eurofins (KinaseProfiler)
# How it was run: as §1
# [35] = molecular target: T35, ROCK-II(h) (Homo sapiens, UniProt O75116)
# T35 construct: purchased Eurofins (KinaseProfiler)
# T35 sequence (O75116 whole entry): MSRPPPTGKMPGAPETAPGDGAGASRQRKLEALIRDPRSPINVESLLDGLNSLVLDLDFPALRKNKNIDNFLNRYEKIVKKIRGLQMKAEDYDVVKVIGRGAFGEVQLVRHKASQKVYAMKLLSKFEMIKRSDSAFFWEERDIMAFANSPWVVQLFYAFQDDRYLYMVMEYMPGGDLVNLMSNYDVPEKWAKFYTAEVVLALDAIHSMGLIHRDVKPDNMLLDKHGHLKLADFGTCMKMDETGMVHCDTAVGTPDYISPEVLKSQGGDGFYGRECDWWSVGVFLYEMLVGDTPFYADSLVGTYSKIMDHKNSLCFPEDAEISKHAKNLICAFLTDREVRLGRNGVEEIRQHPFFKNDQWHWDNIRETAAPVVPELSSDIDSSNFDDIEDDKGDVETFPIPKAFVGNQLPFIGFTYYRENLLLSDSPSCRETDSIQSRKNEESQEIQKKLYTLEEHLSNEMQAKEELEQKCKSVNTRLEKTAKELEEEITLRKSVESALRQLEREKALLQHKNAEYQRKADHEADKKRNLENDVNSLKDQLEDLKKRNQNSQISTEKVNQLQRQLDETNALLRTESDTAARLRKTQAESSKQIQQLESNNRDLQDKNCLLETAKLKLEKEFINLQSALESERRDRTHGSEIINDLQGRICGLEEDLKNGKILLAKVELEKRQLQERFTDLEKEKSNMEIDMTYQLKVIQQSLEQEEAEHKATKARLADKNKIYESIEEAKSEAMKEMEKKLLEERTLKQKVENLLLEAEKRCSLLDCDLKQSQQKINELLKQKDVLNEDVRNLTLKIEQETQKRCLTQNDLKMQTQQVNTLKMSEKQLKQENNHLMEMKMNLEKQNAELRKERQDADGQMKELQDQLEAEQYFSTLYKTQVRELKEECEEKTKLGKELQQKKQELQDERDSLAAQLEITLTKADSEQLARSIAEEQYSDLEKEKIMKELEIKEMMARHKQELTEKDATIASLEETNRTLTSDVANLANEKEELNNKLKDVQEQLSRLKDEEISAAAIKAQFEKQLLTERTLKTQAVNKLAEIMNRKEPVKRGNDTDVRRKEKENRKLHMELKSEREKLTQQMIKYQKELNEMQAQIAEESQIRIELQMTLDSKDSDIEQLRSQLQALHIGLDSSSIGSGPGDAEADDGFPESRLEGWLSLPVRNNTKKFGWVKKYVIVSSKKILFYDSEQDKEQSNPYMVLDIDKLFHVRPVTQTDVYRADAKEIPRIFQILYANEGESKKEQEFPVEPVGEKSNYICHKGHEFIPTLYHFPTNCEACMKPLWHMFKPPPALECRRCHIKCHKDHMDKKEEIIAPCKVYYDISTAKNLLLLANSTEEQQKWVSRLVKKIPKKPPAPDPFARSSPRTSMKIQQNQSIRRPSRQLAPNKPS
# How it was run: as §1
# [36] = molecular target: T36, TTK(h) (Homo sapiens, UniProt P33981)
# T36 construct: purchased Eurofins (KinaseProfiler)
# T36 sequence (P33981 whole entry): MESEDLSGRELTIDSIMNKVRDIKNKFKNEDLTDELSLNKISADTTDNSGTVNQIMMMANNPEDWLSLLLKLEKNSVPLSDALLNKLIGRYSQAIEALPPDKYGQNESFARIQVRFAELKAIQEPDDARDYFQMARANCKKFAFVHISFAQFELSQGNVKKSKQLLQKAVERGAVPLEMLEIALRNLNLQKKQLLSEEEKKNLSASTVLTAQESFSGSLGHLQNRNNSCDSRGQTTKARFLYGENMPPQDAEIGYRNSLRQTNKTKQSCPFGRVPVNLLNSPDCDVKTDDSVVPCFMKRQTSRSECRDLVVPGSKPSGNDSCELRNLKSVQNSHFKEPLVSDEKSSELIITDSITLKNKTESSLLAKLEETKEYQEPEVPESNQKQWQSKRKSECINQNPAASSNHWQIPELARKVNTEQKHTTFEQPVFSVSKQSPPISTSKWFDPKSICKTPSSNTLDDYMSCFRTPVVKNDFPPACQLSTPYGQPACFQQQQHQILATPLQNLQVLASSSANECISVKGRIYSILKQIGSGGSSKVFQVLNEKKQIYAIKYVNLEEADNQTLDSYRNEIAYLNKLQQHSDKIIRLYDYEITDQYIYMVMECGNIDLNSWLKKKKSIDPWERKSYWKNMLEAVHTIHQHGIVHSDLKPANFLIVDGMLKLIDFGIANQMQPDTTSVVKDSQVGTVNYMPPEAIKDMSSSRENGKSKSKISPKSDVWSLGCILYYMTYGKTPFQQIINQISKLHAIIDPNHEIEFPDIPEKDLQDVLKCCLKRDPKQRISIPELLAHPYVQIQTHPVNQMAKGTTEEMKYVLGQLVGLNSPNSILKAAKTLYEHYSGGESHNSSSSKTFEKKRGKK
# How it was run: as §1
# [37] = molecular target: T37, RIPK1(h) (Homo sapiens, UniProt Q13546)
# T37 construct: purchased Eurofins (KinaseProfiler)
# How it was run: as §1
# [38] = molecular target: T38, SBK1(h) (Homo sapiens, UniProt Q52WX2)
# T38 construct: purchased Eurofins (KinaseProfiler)
# How it was run: as §1
compound,measurement,setting,value
"Cc1cc(/C=C/C#N)cc(C)c1Nc1ccnc(Nc2ccc(C#N)cc2)n1 [rilpivirine, (E)-4-((4-((4-(2-cyanoethenyl)-2,6-dimethylphenyl)amino)pyrimidin-2-yl)amino)benzonitrile]",remaining activity at 1 µM,[1],86%
same,remaining activity at 1 µM,[2],100%
same,remaining activity at 1 µM,[3],99%
same,remaining activity at 1 µM,[4],88%
same,remaining activity at 1 µM,[5],80%
same,remaining activity at 1 µM,[6],97%
same,remaining activity at 1 µM,[7],90%
same,remaining activity at 1 µM,[8],101%
same,remaining activity at 1 µM,[9],78%
same,remaining activity at 1 µM,[10],101%
same,remaining activity at 1 µM,[11],88%
same,remaining activity at 1 µM,[12],84%
same,remaining activity at 1 µM,[13],99%
same,remaining activity at 1 µM,[14],107%
same,remaining activity at 1 µM,[15],86%
same,remaining activity at 1 µM,[16],95%
same,remaining activity at 1 µM,[17],95%
same,remaining activity at 1 µM,[18],98%
same,remaining activity at 1 µM,[19],96%
same,remaining activity at 1 µM,[20],58%
same,remaining activity at 1 µM,[21],94%
same,remaining activity at 1 µM,[22],87%
same,remaining activity at 1 µM,[23],74%
same,remaining activity at 1 µM,[24],88%
same,remaining activity at 1 µM,[25],95%
same,remaining activity at 1 µM,[26],97%
same,remaining activity at 1 µM,[27],83%
same,remaining activity at 1 µM,[28],94%
same,remaining activity at 1 µM,[29],99%
same,remaining activity at 1 µM,[30],91%
same,remaining activity at 1 µM,[31],93%
same,remaining activity at 1 µM,[32],96%
same,remaining activity at 1 µM,[33],85%
same,remaining activity at 1 µM,[34],92%
same,remaining activity at 1 µM,[35],98%
same,remaining activity at 1 µM,[36],71%
same,remaining activity at 1 µM,[37],91%
same,remaining activity at 1 µM,[38],100%
